molecular target: T1, BpsCAβ (β-carbonic anhydrase) (Burkholderia pseudomallei, UniProt Q63Y17); test: biochemical
T1 construct: gene BPSL0372
T1 sequence (Q63Y17 1-256 limits assumed): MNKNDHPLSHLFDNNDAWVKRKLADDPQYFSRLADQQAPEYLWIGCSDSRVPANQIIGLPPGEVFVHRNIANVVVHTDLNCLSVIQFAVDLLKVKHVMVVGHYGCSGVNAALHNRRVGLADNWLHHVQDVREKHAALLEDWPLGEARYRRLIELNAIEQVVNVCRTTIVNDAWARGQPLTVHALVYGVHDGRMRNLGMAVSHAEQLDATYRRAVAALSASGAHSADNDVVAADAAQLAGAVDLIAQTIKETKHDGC

Going from `CCN[C@H]1CN(CCCOC)S(=O)(=O)c2sc(S(N)(=O)=O)cc21` [BRZ, brinzolamide] to `CC(=O)N=c1sc(S(N)(=O)=O)nn1C` [MZA, methazolamide], the Ki falls from 4.27 µM to 0.186 µM (23-fold).

`Cc1ccc(-c2cc(C(F)(F)F)nn2-c2ccc(S(N)(=O)=O)cc2)cc1` [CLX, celecoxib] and `Cc1ccc(S(N)(=O)=O)cc1` [compound 4, 4] cannot be ordered by Ki: greater than 50 µM for the first, greater than 50 µM for the second.

Compared with `NS(=O)(=O)c1cc(Cl)c(Cl)c(S(N)(=O)=O)c1` [DCP, dichlorophenamide], `NS(=O)(=O)c1cc(Cl)cc(Cl)c1O` [compound 10, 10] is 7.8-fold higher in Ki: 0.529 µM for the first, 4.1 µM for the second.

Going from `NS(=O)(=O)c1ccc(S(=O)(=O)Nc2cccc3c(Cl)c[nH]c23)cc1` [IND, indisulam] to `Nc1ccc(S(=O)(=O)Nc2nnc(S(N)(=O)=O)s2)cc1` [compound 20, aminobenzolamide], the Ki falls from 4.37 µM to 0.266 µM (16-fold).

Going from `CC1(C)O[C@@H]2[C@@H](CO[C@@]3(COS(N)(=O)=O)OC(C)(C)O[C@@H]23)O1` [TPM, topiramate] to `Cn1nc(S(N)(=O)=O)sc1=N` [compound 14, deacetylated derivative of MZA], the Ki falls from greater than 50 µM to 2.5 µM. The second binds more tightly here.

First: NS(=O)(=O)Cc1noc2ccccc12 [ZNS, zonisamide]
Second: Nc1cccc(S(N)(=O)=O)c1 [compound 1, metanilamide]
The Ki of the first is lower: 4.06 µM for the first, greater than 50 µM for the second.

`Nc1ccc(S(N)(=O)=O)cc1` [compound 2, sulfanilamide] and `NCc1ccc(S(N)(=O)=O)cc1` [compound 5, 5] are within 1.5-fold of each other in Ki: 3.89 µM for the first, 3.9 µM for the second.

First: NS(=O)(=O)c1cccc(S(N)(=O)=O)c1 [compound 3, 3]
Second: Nc1ccc(S(N)(=O)=O)cc1Br [compound 9, 9]
The Ki of the first is lower: 3.17 µM for the first, greater than 50 µM for the second. The first binds more tightly here.

`Nc1ccc(S(N)(=O)=O)cc1F` [compound 7, 7] and `Nc1ccc(S(N)(=O)=O)cc1Cl` [compound 8, 8] cannot be ordered by Ki: greater than 50 µM for the first, greater than 50 µM for the second.

`Nc1nnc(S(N)(=O)=O)s1` [compound 13, deacetylated derivative of AAZ] was tested, and the Ki was 3.06 µM.

Source: paper PMC6155308 (Molecules : A Journal of Synthetic Chemistry and Natural …, 2017)
